Laboratory results reported in ChEMBL document CHEMBL3596167, “Branched -d-mannopyranosides: a new class of potent FimH antagonists” (Medchemcomm, 2014).
Active and inactive are the calls of the source. The rule behind the calls is not given here.

Legend:
HepG2 = test: Cytotoxicity against human HepG2 cells at 1 to 10 uM after 24 hrs by CellTiter 96 aqueous one solution cell proliferation assay; assay type: cell-based; conditions: hepg2, 24 h
[1] = biological target: Type 1 fimbrin D-mannose specific adhesin (Escherichia coli K-12) (UniProt P08191); test: Displacement of TM-PAA polymer from Escherichia coli FimH-CRD-Th-6-His expressed in Escherichia coli HM125 at <1 uM by competitive binding assay
Chain of Type 1 fimbrin D-mannose specific adhesin (Escherichia coli K-12) (P08191 whole entry): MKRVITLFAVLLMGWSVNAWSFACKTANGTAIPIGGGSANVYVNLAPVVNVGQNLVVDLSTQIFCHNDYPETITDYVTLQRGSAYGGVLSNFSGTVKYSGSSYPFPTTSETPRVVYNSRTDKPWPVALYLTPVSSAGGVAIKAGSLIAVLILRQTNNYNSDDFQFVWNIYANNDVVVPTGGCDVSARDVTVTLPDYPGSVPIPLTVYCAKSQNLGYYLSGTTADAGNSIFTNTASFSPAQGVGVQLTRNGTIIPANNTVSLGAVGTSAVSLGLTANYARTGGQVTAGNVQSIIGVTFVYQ

[2] = Solubility of the compound in DMSO at 10 uM; assay type: physicochemical
[3] = biological target: T1, Type 1 fimbrin D-mannose specific adhesin (Escherichia coli K-12, UniProt P08191); test: Displacement of TM-PAA polymer from Escherichia coli FimH-CRD-Th-6-His expressed in Escherichia coli HM125 by competitive binding assay
T1 sequence (P08191 whole entry): as above

[4] = biological target: Type 1 fimbrin D-mannose specific adhesin (Escherichia coli K-12) (UniProt P08191); test: Displacement of TM-PAA polymer from Escherichia coli FimH-CRD-Th-6-His expressed in Escherichia coli HM125 by competitive binding assay relative to heptyl alpha-D-mannopyranoside
[5] = biological target: Type 1 fimbrin D-mannose specific adhesin (Escherichia coli K-12) (UniProt P08191); test: Inhibition of Escherichia coli FimH relative to methyl alpha-D-mannopyranoside
[6] = biological target: Type 1 fimbrin D-mannose specific adhesin (Escherichia coli K-12) (UniProt P08191); test: Inhibition of Escherichia coli FimH relative to heptyl alpha-D-mannopyranoside
[7] = biological target: T1, Type 1 fimbrin D-mannose specific adhesin; test: Binding affinity to Escherichia coli FimH

IC50 [3] | SMILES | Activity (HepG2) | further results
– | OC[C@H]1O[C@H](OC(COc2ccc3ccccc3c2)COc2ccc3ccccc3c2)[C@@H](O)[C@@H](O)[C@@H]1O | Non-toxic | inhibition [1]: inactive
158 nM | COc1ccc2ccc(OCC(COc3ccc4ccc(C(=O)O)cc4c3)O[C@H]3O[C@H](CO)[C@@H](O)[C@H](O)[C@@H]3O)cc2c1 (some centres not stated) | Non-toxic | solubility [2]: soluble; Ratio [4]: 0.37
212 nM | COC(=O)c1ccc2ccc(OCC(COc3ccc4ccc(OC)cc4c3)O[C@H]3O[C@H](CO)[C@@H](O)[C@H](O)[C@@H]3O)cc2c1 (some centres not stated) | Non-toxic | solubility [2]: soluble; Ratio [4]: 0.28
746 nM | CCOCC(COc1ccc2ccccc2c1)O[C@H]1O[C@H](CO)[C@@H](O)[C@H](O)[C@@H]1O (some centres not stated) | Non-toxic | Ratio [4]: 0.08
763 nM | O=C(NCC(CNC(=O)c1ccc2ccccc2c1)O[C@H]1O[C@H](CO)[C@@H](O)[C@H](O)[C@@H]1O)c1ccc2ccccc2c1 | – | –
– | O=[N+]([O-])c1ccc(CCO[C@H]2O[C@H](CO)[C@@H](O)[C@H](O)[C@@H]2O)cc1 | – | Ratio [5]: 85
– | CCOc1c(Nc2ccc(O[C@H]3O[C@H](CO)[C@@H](O)[C@H](O)[C@@H]3O)c(Cl)c2)c(=O)c1=O | – | Ratio [5]: 6900
607 nM | O=C(NCC(CNC(=O)c1ccc[nH]1)O[C@H]1O[C@H](CO)[C@@H](O)[C@H](O)[C@@H]1O)c1ccc[nH]1 | – | –
58.9 nM | CCCCCCCO[C@H]1O[C@H](CO)[C@@H](O)[C@H](O)[C@@H]1O | – | –
– | COc1ccc(OCC(COc2ccc(OC)cc2)O[C@H]2O[C@H](CO)[C@@H](O)[C@H](O)[C@@H]2O)cc1 | Non-toxic | inhibition [1]: inactive
– | O=C(Cc1ccc([N+](=O)[O-])cc1)NCC(CNC(=O)Cc1ccc([N+](=O)[O-])cc1)O[C@H]1O[C@H](CO)[C@@H](O)[C@H](O)[C@@H]1O | – | inhibition [1]: inactive
593 nM | COc1ccc2ccc(OCC(COc3ccc4ccc(OC)cc4c3)O[C@H]3O[C@H](CO)[C@@H](O)[C@H](O)[C@@H]3O)cc2c1 | Non-toxic | –
232 nM | O=C(O)Cc1ccc(OCC(COc2cccc3ccccc23)O[C@H]2O[C@H](CO)[C@@H](O)[C@H](O)[C@@H]2O)cc1 (some centres not stated) | Non-toxic | solubility [2]: soluble; Ratio [4]: 0.25
– | O=C(Cc1ccccc1)NCC(CNC(=O)Cc1ccccc1)O[C@H]1O[C@H](CO)[C@@H](O)[C@H](O)[C@@H]1O | – | inhibition [1]: inactive
– | OCC#Cc1ccc(O[C@H]2O[C@H](CO)[C@@H](O)[C@H](O)[C@@H]2O)cc1 | – | Ratio [6]: 7.7; Ratio [5]: 3380; Kd [7]: 0.65 nM
– | OC[C@H]1OC(O)[C@@H](O)[C@@H](O)[C@@H]1O (stereo partly drawn) [D-MANNOSE] | – | Kd [7]: 2300 nM
208 nM | COc1ccc(OC(COc2ccc(O)cc2)CO[C@H]2O[C@H](CO)[C@@H](O)[C@H](O)[C@@H]2O)cc1 (some centres not stated) | Non-toxic | Ratio [4]: 0.28
– | O=[N+]([O-])c1ccc(O[C@H]2O[C@H](CO)[C@@H](O)[C@H](O)[C@@H]2O)c(Cl)c1 | – | Ratio [5]: 717
– | OC[C@H]1O[C@H](OCC(COc2ccc3ccccc3c2)Oc2ccc3ccccc3c2)[C@@H](O)[C@@H](O)[C@@H]1O (some centres not stated) | Non-toxic | inhibition [1]: inactive
– | O=[N+]([O-])c1ccc(OCC(CO[C@H]2O[C@H](CO)[C@@H](O)[C@H](O)[C@@H]2O)Oc2ccc([N+](=O)[O-])cc2)cc1 (some centres not stated) | Non-toxic | –
804 nM | O=[N+]([O-])c1ccc(OCC(COc2ccc([N+](=O)[O-])cc2)O[C@H]2O[C@H](CO)[C@@H](O)[C@H](O)[C@@H]2O)cc1 | Non-toxic | –
875 nM | COc1ccc2ccc(OCC(CO[C@H]3O[C@H](CO)[C@@H](O)[C@H](O)[C@@H]3O)Oc3ccc4ccc(OC)cc4c3)cc2c1 (some centres not stated) | Non-toxic | –
– | OC[C@H]1O[C@H](OCC(COc2cccc3ccccc23)Oc2cccc3ccccc23)[C@@H](O)[C@@H](O)[C@@H]1O (some centres not stated) | Non-toxic | inhibition [1]: inactive
– | OC[C@H]1O[C@H](OC(COc2cccc3ccccc23)COc2cccc3ccccc23)[C@@H](O)[C@@H](O)[C@@H]1O | Non-toxic | –
346 nM | O=C(O)c1ccc(OCC(COc2cccc3ccccc23)O[C@H]2O[C@H](CO)[C@@H](O)[C@H](O)[C@@H]2O)cc1 (some centres not stated) | Non-toxic | solubility [2]: soluble; Ratio [4]: 0.17
978 nM | N#Cc1ccc(C(=O)NCC(CNC(=O)c2ccc(C#N)cc2)O[C@H]2O[C@H](CO)[C@@H](O)[C@H](O)[C@@H]2O)cc1 | – | –
– | OC[C@H]1O[C@H](OC(COc2ccccc2)COc2ccccc2)[C@@H](O)[C@@H](O)[C@@H]1O | Non-toxic | –
